Measurements reported in patent US8809500B2, “Complexes comprising mammalian raptor polypeptide and mammalian mTOR polypeptide” (Whitehead Institute For Biomedical Research, priority 2002, dated 2014).

Legend:
[1] = biological target: T1, mTOR-raptor complex (Homo sapiens, UniProt P42345+P62942); test: mTOR-raptor interaction: raptor co-precipitated in mTOR immunoprecipitates (western blot); format: cell-based; details: for effect on mTOR-raptor interaction (complex stability): cells treated for 10 minutes: 500 mM sucrose, 1 mM H2O2, 1 μm valinomycin A, 100 mM 2-deoxyglucose
T1 construct: endogenous in cells
Description: Unless otherwise stated, for mTOR immunoprecipitates prepared in the absence of the cross-linker, cells were lysed in ice-cold Buffer B (Buffer A in which Triton X-100 is replaced by 0.3% CHAPS) and immunoprecipitates were washed four times in Buffer B and twice in Wash Buffer 2.

[2] = biological target: T2, mTOR (Homo sapiens, UniProt P42345); test: In vitro kinase assay for mTOR activity, endogenous mTOR immunoprecipitates, GST-S6K1 substrate; format: biochemical; details: for effect on mTOR kinase activity of mTOR immunoprecipitates from treated cells: cells treated for 10 minutes: 500 mM sucrose, 1 mM H2O2, 1 μm valinomycin A, 100 mM 2-deoxyglucose; for sensitivity of kinase activity of immunoprecipitates of endogenous mTOR: 20 μM inhibitor, added 10 minutes prior to kinase assay
T2 construct: the kinase activity of immunoprecipitates of endogenous mTOR depends on the presence of mTOR; endogenous in cells; host or cells: HEK293T
Protocol: FIG. 8A is a gel showing deprivation of amino acids, leucine, or glucose increases the stability of raptor-mTOR complex and decreases mTOR kinase activity, effects reversed by stimulation with leucine or glucose. HEK293T cells were incubated for 50 minutes in RPMI lacking amino acids (−amino acids), leucine (−leucine), or glucose (−glucose) or left untreated (control). Duplicate plates of cells deprived of leucine or glucose were stimulated for 10 minutes with 52 μg/ml leucine (−leu+leu) or 11 mM glucose (−gluc+gluc), respectively. Cells were lysed, anti-mTOR immunoprecipitates prepared, and mTOR kinase activity determined with in vitro kinase assays containing ATP-[γ-^32P] and a GST-S6K1 fusion protein (Burnett et al., PNAS 95:1432-1437 (1998)). Kinase reactions were resolved by SDS-PAGE, proteins transferred to PVDF, ^32P-incorporation into GST-S6K1 detected with autoradiography (third panel from top) and levels of mTOR (top panel) and raptor (middle panel) determined by immunoblotting. Western blot analyses of cell lysates used to prepare mTOR immunoprecipitates showing effects of nutrient conditions on the phosphorylation state and gel mobility of S6K1 in vivo (bottom two panels).
Kinase assays were performed in a volume of 10 μl at 30° C. for 20 min and contained ¼ the washed mTOR immunoprecipitates from 10 million HEK293T cells growing on a 10-cm dish, 200 ng of a GST-S6K1 fusion protein (amino acids 332-502), 1 μCi of [γ-^32P]ATP, 25 mM Hepes-KOH, pH 7.4, 50 mM KCl, 20% glycerol, 10 mM MgCl2, 4 mM MnCl2, 1 mM DTT, and 50 μM unlabeled ATP. When inhibitors were used they were added to the mTOR immunoprecipitates 10 minutes prior to the start of the kinase assay. Reactions were stopped by the addition of 5 μl of 2× sample buffer. After boiling the samples for 3 min, proteins were resolved by 8% SDS-PAGE, transferred to PVDF (poly(vinylidene difluoride)), and phosphorylated proteins visualized with autoradiography. The same blots were then used to determine the levels of mTOR and raptor by western analysis. Kinase assays using recombinant mTOR were performed as described in Burnett et al., PNAS, 95:1432-1437 (1998), except that they were washed as above with Buffer B.

[3] = system: HEK293T cells; test: Leucine-induced growth experiment (cell size after leucine re-addition); details: HEK293T deprived of leucine 24 hours, then leucine 52 μg/ml; size at 6 and 10 hours; rapamycin added with leucine
Protocol: Cells were transfected with the indicated siRNAs and the experiment performed as described herein. […] Shown are mean±S.D. from samples for each time point.
(§1) Cells were then harvested, diluted 1:10 or 1:20 and replated in fresh media. At 1, 2, and 3 days after replating, the cells were harvested by trypsinization in 2 ml media, diluted 1:20 with counting solution (Isoflow Sheath Fluid, Coulter Corp.) and cell diameters and volumes determined using a particle size counter (Coulter Multisizer II). Cells between 11 and 21 μm in diameter were used for analysis. For the leucine-induced growth experiment, the siRNA transfected cells were diluted into fresh media one day after transfection and, at 24 hours after dilution the cells were deproved of leucine for a further 24 hours. The cells were then provided with leucine (52 μg/ml) and cell diameters, volumes, and numbers determined as above at 6 and 10 hours after the leucine supplementation.
Leucine was then added to the media and cell size measured at 6 and 10 hours after leucine addition.

[4] = system: HEK293T cells; test: Cell size determination in actively growing cells (Coulter Multisizer II); details: three days after siRNA transfection or 20 nM rapamycin for 48 hours
Protocol: Cell diameters and volumes were determined three days after transfection using a particle size counter (Coulter Multisizer II). […] Mean±S.D. values were obtained from the indicated numbers of independent trials in which at least 10,000 cells were analyzed per trial.
as §1

[5] = system: S6K1; test: In vivo phosphorylation state of S6K1 (T389) in cell lysates by western blot; format: cell-based, human
[6] = insulin 200 nM for 25 minutes, HEK293T in serum-free media for 24 hours

Row | Molecule | effect on mTOR-raptor interaction (complex stability) [1] | effect on mTOR kinase activity of mTOR immunoprecipitates from treated cells [2] | other results
1 | CNCCNS(=O)(=O)c1cccc2cnccc12 [H-8] |  |  | sensitivity of kinase activity of immunoprecipitates of endogenous mTOR [2]: not
2 | COc1cccc(-c2cc(=O)c3ccccc3o2)c1N [PD98059] |  |  | sensitivity of kinase activity of immunoprecipitates of endogenous mTOR [2]: not
3 | CO[C@H]1C[C@@H]2CC[C@@H](C)[C@@](O)(O2)C(=O)C(=O)N2CCCC[C@H]2C(=O)O[C@H]([C@H](C)C[C@@H]2CC[C@@H](O)[C@H](OC)C2)CC(=O)[C@H](C)/C=C(\C)[C@@H](O)[C@@H](OC)C(=O)[C@H](C)C[C@H](C)/C=C/C=C/C=C/1C [rapamycin] |  |  | growth rate after leucine addition [3]: 1.02 % volume per hour; cell diameter, mean±S.D. [4]: 14.61±0.10 μm
4 | CC(C)[C@@H]1NC(=O)[C@H](C)OC(=O)[C@@H](C(C)C)NC(=O)[C@@H](C(C)C)OC(=O)[C@H](C(C)C)NC(=O)[C@H](C)OC(=O)[C@@H](C(C)C)NC(=O)[C@@H](C(C)C)OC(=O)[C@H](C(C)C)NC(=O)[C@H](C)OC(=O)[C@@H](C(C)C)NC(=O)[C@@H](C(C)C)OC1=O [valinomycin] | stabilized the mTOR-raptor interaction | inhibited mTOR kinase activity | 
5 | antimycin A | stabilized the mTOR-raptor interaction | inhibited mTOR kinase activity | 
6 | insulin |  |  | effect on mTOR-raptor interaction [1, 6]: did not affect the raptor-mTOR interaction; effect on phosphorylation state of S6K1 [5, 6]: increased the phosphorylation state of S6K1

The next lines start with results.

Row | effect on mTOR-raptor interaction (complex stability) [1] | effect on mTOR kinase activity of mTOR immunoprecipitates from treated cells [2] | Molecule | other results
7 | stabilized the mTOR-raptor interaction | inhibited mTOR kinase activity | O=CC[C@@H](O)[C@H](O)[C@H](O)CO [2-deoxyglucose] | 
8 | stabilized the interaction | inhibited the mTOR kinase | OO [H2O2] | 
9 | only a modest effect | only a modest effect | OC[C@H]1O[C@@](CO)(O[C@H]2O[C@H](CO)[C@@H](O)[C@H](O)[C@H]2O)[C@@H](O)[C@@H]1O [sucrose] | effect on phosphorylation state of S6K1 ([5]; cells treated for 10 minutes with 500 mM sucrose): decreased the phosphorylation state of S6K1
